The numbers were not newly measured in article PMC11901438, “Synthesis and Evaluation of Boron-Containing Heterocyclic Compounds with Antimicrobial and Anticancer Activities” (Molecules, 2025), which cites them from elsewhere.

In brackets after ≈: the same amount, converted by molar mass.

The test system of this series is Mycobacterium tuberculosis. Details: method as in PMID 33410233. To be noted: earlier work of the same laboratory; cited from earlier work.
As for `O=C(Nc1ccc(N2CCN(c3ccccn3)CC2)c(F)c1)c1ccc2no[n+]([O-])c2c1` [Compound 1], the “MIC90 (CIM90) anti-Mycobacterium tuberculosis” value (“MIC90” below) is 0.09 µM (≈ 0.0391 µg/mL).

Take `O=C(Nc1ccc(N2CCN(c3ccc(F)cc3)CC2)c(F)c1)c1ccc2no[n+]([O-])c2c1` [Compound 3]: the “MIC90” value was 3.82 µM (≈ 1.72 µg/mL).

`O=C(Nc1ccc(N2CCCCCC2)c(F)c1)c1ccc2no[n+]([O-])c2c1` [Compound 6]: the “MIC90” value is 2.89 µM (≈ 1.07 µg/mL).

In the case of `O=C(Nc1ccc(N2CCN(c3ncccn3)CC2)c(F)c1)c1ccc2no[n+]([O-])c2c1` [Compound 2], the “MIC90” value was 2.22 µM (≈ 0.967 µg/mL).

As to `O=C(Nc1ccc(N2CCOCC2)c(F)c1)c1ccc2no[n+]([O-])c2c1` [Compound 5], the “MIC90” value is 5.22 µM (≈ 1.87 µg/mL).

On to `O=C(Nc1ccc(N2CCSCC2)c(F)c1)c1ccc2no[n+]([O-])c2c1` [Compound 4], for which the “MIC90” value is 0.70 µM (≈ 0.262 µg/mL).
